Test results reported in publication PMC4774911, “Biochemical Screening of Five Protein Kinases from Plasmodium falciparum against 14,000 Cell-Active Compounds” (PLoS ONE, 2016).
pIC50: −log10 of the molar value. Several values for one entry are separate records, joined by “and”; a condition that tells them apart may be missing. Identical values can stand only once.

Key:
Experiment in all cases: biochemical
BMPR2 = target: T1, BMPR2 (Homo sapiens, UniProt Q13873)
T1 sequence (Q13873 1-1038): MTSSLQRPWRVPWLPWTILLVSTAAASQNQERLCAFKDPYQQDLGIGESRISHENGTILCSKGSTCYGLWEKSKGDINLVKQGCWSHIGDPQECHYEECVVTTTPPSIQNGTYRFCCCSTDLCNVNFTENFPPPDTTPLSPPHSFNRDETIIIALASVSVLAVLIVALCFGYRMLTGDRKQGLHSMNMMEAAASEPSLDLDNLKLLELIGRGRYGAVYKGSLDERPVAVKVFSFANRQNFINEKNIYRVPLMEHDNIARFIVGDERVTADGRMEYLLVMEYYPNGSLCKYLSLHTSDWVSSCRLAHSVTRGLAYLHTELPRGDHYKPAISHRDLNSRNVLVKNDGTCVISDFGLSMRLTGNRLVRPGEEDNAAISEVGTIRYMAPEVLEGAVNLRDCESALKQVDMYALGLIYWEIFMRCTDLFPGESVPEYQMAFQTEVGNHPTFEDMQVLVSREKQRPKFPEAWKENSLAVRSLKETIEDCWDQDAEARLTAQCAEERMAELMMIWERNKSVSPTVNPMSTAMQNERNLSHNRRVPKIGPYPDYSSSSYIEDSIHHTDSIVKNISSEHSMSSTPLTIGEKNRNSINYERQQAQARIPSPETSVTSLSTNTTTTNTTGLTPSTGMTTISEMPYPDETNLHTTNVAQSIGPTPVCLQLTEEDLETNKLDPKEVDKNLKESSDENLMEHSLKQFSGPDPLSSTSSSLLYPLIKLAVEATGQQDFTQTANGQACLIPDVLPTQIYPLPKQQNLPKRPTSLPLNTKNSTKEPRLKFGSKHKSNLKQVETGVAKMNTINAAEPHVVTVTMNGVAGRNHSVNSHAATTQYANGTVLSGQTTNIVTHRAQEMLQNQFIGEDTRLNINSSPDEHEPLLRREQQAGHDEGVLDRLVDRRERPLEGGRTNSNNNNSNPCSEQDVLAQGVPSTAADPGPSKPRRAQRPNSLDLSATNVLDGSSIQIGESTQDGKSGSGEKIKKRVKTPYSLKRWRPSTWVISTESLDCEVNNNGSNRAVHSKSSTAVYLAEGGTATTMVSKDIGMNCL

MAP3K3 = target: T2, MAP3K3 (Homo sapiens, UniProt Q99759)
T2 sequence (Q99759 1-626): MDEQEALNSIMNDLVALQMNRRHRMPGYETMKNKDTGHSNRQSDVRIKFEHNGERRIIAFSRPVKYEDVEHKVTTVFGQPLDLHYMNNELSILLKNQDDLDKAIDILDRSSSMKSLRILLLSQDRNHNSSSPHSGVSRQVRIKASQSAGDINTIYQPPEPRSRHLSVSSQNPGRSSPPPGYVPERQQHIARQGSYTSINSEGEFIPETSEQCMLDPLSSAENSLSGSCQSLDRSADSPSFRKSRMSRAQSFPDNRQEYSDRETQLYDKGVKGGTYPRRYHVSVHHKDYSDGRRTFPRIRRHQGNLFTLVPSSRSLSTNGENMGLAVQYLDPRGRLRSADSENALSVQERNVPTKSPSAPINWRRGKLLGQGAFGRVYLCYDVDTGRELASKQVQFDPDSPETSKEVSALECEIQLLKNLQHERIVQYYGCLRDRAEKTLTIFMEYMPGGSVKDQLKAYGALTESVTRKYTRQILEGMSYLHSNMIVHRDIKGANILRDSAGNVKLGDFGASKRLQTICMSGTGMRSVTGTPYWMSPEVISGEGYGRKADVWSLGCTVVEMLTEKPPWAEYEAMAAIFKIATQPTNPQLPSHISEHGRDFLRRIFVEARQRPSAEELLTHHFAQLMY

MAP4K4 = MAP4K4 (Homo sapiens, UniProt O95819)
Chain of MAP4K4 (O95819 whole entry): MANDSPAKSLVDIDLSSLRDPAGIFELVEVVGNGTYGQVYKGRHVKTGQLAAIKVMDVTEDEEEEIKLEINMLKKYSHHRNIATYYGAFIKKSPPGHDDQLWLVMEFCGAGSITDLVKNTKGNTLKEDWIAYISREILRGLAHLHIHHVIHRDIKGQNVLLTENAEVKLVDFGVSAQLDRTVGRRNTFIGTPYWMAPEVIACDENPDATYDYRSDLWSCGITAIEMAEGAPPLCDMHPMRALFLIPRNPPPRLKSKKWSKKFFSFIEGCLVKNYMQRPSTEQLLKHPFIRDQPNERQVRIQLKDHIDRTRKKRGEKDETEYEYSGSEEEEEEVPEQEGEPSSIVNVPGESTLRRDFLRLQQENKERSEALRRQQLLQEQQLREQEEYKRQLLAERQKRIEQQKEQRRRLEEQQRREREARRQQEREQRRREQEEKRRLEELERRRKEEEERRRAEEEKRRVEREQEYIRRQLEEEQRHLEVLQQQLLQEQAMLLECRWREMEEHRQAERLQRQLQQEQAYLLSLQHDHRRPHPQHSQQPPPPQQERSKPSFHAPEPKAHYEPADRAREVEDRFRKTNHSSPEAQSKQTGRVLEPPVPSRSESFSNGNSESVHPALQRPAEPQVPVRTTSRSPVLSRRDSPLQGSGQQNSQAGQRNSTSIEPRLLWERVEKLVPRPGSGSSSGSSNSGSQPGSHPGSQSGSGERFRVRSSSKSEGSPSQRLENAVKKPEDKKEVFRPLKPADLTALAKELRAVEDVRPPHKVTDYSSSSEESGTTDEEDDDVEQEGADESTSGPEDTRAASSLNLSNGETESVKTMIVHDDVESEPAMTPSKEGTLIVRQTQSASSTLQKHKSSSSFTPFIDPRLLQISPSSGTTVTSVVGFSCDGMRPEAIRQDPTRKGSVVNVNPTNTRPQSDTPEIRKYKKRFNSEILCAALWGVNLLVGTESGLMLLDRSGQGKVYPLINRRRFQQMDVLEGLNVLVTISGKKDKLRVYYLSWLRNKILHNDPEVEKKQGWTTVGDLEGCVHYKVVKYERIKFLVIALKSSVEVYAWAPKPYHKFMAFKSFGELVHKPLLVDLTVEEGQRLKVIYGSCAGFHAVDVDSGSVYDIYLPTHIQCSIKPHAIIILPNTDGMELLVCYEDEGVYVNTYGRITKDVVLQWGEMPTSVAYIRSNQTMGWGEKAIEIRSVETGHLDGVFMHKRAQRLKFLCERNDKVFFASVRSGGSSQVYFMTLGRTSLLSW

MKNK1 = MKNK1 (Homo sapiens, UniProt Q9BUB5)
Chain of MKNK1 (Q9BUB5 whole entry): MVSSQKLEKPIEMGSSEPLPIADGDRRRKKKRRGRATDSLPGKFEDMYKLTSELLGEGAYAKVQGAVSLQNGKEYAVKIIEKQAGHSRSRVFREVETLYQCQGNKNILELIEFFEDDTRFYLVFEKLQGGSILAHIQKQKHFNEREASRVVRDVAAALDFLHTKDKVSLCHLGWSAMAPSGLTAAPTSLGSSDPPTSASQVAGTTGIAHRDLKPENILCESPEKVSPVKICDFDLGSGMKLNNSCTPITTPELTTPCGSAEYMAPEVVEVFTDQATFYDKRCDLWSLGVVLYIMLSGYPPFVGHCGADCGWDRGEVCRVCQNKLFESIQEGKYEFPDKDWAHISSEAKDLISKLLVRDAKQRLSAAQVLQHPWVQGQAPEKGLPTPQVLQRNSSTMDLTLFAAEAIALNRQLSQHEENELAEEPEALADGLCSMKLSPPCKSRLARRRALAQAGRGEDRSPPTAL

STK17B = STK17B (Homo sapiens, UniProt O94768)
Chain of STK17B (O94768 whole entry): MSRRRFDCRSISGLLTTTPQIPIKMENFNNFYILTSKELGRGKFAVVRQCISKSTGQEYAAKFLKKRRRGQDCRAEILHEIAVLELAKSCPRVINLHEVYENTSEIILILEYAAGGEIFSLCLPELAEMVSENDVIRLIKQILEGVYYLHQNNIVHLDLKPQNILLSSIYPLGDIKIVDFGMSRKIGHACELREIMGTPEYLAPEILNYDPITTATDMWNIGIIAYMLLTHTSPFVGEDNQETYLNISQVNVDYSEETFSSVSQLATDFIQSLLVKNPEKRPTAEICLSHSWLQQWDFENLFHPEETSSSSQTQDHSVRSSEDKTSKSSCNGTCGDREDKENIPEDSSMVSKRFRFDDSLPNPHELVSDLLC

TGFBR1 = target: T3, TGFBR1 (Homo sapiens, UniProt P36897)
T3 sequence (P36897 1-503): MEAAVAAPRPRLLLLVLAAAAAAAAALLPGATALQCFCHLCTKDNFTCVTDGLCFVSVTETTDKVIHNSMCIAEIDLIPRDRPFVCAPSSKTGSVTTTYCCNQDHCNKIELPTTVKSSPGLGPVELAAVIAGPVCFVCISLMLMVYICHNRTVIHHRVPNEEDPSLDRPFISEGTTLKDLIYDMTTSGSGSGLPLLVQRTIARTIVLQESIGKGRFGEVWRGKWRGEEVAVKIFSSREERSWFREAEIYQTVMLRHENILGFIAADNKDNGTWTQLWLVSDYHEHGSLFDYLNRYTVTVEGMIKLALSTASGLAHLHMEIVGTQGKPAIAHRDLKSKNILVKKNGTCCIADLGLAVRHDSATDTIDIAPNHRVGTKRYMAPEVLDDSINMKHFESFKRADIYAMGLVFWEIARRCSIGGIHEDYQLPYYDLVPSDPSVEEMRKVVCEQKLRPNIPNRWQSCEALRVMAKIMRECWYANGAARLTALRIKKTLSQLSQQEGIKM

CDK6 = CDK6 (Homo sapiens, UniProt Q00534)
Chain of CDK6 (Q00534 whole entry): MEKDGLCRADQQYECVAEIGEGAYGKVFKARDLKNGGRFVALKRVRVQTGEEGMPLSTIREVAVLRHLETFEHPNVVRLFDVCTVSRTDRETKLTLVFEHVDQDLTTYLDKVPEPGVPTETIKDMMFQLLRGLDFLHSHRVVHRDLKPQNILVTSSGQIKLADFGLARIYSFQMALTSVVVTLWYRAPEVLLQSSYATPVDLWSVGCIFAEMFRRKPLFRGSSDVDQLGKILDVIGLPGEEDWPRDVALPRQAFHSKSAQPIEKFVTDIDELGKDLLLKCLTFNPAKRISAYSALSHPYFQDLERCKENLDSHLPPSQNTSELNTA

IRAK1 = IRAK1 (Homo sapiens, UniProt P51617)
Chain of IRAK1 (P51617 whole entry): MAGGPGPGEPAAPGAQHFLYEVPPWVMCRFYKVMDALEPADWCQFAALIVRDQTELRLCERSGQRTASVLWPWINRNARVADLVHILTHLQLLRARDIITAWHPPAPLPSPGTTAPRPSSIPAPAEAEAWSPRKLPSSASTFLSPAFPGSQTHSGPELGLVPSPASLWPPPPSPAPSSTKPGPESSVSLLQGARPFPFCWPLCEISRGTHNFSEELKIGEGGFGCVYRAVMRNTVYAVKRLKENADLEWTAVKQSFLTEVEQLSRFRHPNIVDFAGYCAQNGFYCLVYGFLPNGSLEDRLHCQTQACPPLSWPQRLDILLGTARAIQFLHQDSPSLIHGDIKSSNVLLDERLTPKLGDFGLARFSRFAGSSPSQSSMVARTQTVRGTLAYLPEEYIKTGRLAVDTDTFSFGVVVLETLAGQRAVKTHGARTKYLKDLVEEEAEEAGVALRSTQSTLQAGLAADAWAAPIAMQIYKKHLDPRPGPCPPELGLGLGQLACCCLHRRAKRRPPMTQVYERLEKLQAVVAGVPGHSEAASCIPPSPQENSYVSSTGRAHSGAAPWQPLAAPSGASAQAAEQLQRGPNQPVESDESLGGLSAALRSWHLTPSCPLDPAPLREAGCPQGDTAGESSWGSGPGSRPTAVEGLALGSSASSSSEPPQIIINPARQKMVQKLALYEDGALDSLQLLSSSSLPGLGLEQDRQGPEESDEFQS

STK4 = target: T4, STK4 (Homo sapiens, UniProt Q13043)
T4 sequence (Q13043 1-487): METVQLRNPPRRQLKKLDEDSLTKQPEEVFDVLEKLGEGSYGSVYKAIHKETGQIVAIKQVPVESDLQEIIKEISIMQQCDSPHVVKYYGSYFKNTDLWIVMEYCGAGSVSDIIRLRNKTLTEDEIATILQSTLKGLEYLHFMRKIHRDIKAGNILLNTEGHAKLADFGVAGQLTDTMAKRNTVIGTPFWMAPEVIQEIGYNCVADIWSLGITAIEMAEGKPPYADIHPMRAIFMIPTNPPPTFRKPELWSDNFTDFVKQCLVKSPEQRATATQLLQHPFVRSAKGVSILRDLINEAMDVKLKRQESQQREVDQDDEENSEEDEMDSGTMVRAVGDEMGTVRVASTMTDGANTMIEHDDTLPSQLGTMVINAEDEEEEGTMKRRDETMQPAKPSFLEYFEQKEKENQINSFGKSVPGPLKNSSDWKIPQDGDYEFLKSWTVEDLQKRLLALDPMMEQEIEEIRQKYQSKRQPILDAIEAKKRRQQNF

Row | SMILES | pIC50 (BMPR2) | pIC50 (MAP3K3) | pIC50 (MAP4K4) | pIC50 (MKNK1) | pIC50 (STK17B) | pIC50 (TGFBR1) | pIC50 (CDK6) | pIC50 (IRAK1) | pIC50 (STK4)
1 | CN(C)CC(O)COc1ccc(Nc2ncc([N+](=O)[O-])c(Nc3ccccc3O)n2)cc1.O=C(O)C(F)(F)F (stereo not drawn) [TCMDC-141399] | < 4.70 | 5.22 and < 4.70 | 5.74 and 5.92 | < 4.70 | < 4.70 | < 4.70 |  |  | 
2 | Cl.NCC1(c2nc(-c3ccc(Cl)c(O)c3)c(-c3ccncc3)[nH]2)CCCCC1 [TCMDC-141154] |  |  | 5.82 and 6.02 | < 4.70 | < 4.70 | 7.02 and 6.85 | < 4.70 | < 4.70 | < 4.70
3 | CN1CCN(c2ccc(Nc3ncc(C#N)c(Nc4ccccc4C(N)=O)n3)cc2)CC1.Cl [TCMDC-134116] | 5.31 and 5.17 | 6.51 |  |  |  |  | 6.80 and 6.74 | 6.80 and 6.85 | 6.72 and 6.66
